Results on one molecule are retold here after patent publication US7399608B2, “Microbial detection and quantification” (Kimberly-Clark Worldwide, Inc., priority 2003, dated 2008).

Data set [1] deals with bacteria in aged chicken juice. Nature of the data set: Dried dye coating on ceramic surface with or without TWEEN 80, aged chicken juice. Particulars: 80 mg/10 mL acetonitrile with 200 μL TWEEN 80, dried on ceramic, drop of aged chicken juice. The source says: This solution was then used to coat a ceramic surface (FIG. 11) and allowed to air dry. […] After drying, a drop of aged chicken juice known to have a high bacterial count was placed on the each coating area (11B). […] Furthermore, the addition of TWEEN® surfactant allowed for easy removal of the dye from the surface.

Data set [2] concerns S. aureus. Description: Solvent choice for Reichardt's dye coatings on SCOTT towels. On the set-up: species or system Staphylococcus aureus. The settings on record: coated SCOTT towel, 100 μl aliquots of S. aureus. As for the experimental part:
Solutions of Reichardt's dye in acetonitrile, isopropanol, and xylenes were prepared and the solutions were used to coat SCOTT® kitchen rolls towels and allowed to air-dry (FIGS. 12A and 12D).

A short description of data set [3]: Reichardt's dye indicator with bacterial cell-wall components. The settings on record: 160 mg in 10 mL acetonitrile.
The test system of data set [4] is S. aureus. Nature of the data set: Titration of substrate-bound microorganism with Reichardt's dye solution. On the set-up: species or system Staphylococcus aureus. The protocol: On a SCOTT® paper towel was placed 100 μl each of serially diluted S. aureus bacterial suspensions. […] This was repeated on each spot corresponding to where different concentrations of bacteria were placed.

The test system of another data set is P. aeruginosa. Nature of the data set: Quantification of bacterial contamination by Delta E (hand-held spectrophotometer). On the set-up: species or system Psuedomonas aeruginosa. The settings on record: label substrate, log CFU/ml (actual) 6. The source says: More specifically, indicator strips coated with Reichardt's dye were exposed with decreasing amounts of the bacteria aliquots. A hand-held spectrophotometer was used to after application of each aliquot to determine “Delta E” value (calculated using L*, A*, and B* values) for each CFU/mL concentration. The results are set forth below in Table 4 (for paper) and Table 5 (for label). From the above, standard detection curves were generated as shown in FIGS. 5-7 for S. aureus, P. aeruginosa, and E. coli, respectively. As shown, each type of bacteria changed the color of the dye-treated substrate in a slightly different way, creating a unique standard curve. Thereafter, drops of unknown bacteria concentrations were placed on the stickers and a spectrophotometer was used to measure the “Delta E” of the resulting color. The numerical values obtained for each unknown sample set forth below in Tables 6-7. […] Although a few of the results were not completely accurate, the present inventors believe that improving the uniformity of the coating would further enhance detection accuracy.

In data set [5] the test system is S. aureus. Nature of the data set: De-colorization of Reichardt's dye-coated paper and stickers by bacteria. On the set-up: species or system Staphylococcus aureus. As for the experimental part: This experiment tested the ability of a surface coating of Reichardt's dye to respond to bacterial contamination. […] To this paper was added 100 μL aliquots of 10^7, 10^6, 10^5, and 10^4 CFU/mL E. coli or S. aureus solutions (8B). Water was used as a negative control. […] It was later determined that while both bacteria solutions were indeed at 10^7 CFU/mL concentrations, the actual concentration of the S. aureus solution was 7×10^7 CFU/mL compared to 1×10^7 CFU/mL for the E. coli solution.
A sheet of paper self-adhesive stickers (Avery-Dennison) was also brush-coated with two different concentrations of Reichardt's dye solution (160 mg/10 mL acetonitrile, 80 mg/10 mL acetonitrile). The stickers were applied to the lid and latch mechanism of a Huggies® Wet Wipes box. A gloved hand was used to transfer 10^7 CFU/mL S. aureus to the surface of the stickers. […] The sticker could provide a means for easy and rapid detection of bacterial contamination for a variety of applications.

The test system of another data set is Influenza A. Description: Virus detection with Reichardt's dye-coated stickers.
For a further data set, the system named is vaccinia. Particulars: 50-microliter droplet, 3 minutes.
Data set [6] relates to E. coli. Nature of the data set: Towel coated with Reichardt's dye and TMB exposed to bacteria. Also noted: species or system Escherichia coli. Particulars: E. coli suspension drop-wise.
The nature of data set [7]: Effect of acid and strong base on Reichardt's dye de-colorization. The format is physicochemical. The source says: This was repeated with another area.
Data set [8] concerns E. coli. Description: Dry sample testing on dye-coated towel. On the set-up: species or system Escherichia coli. The settings on record: dry colony rubbed onto pre-moistened dye coated SCOTT towel. As for the experimental part: A test using the Reichardt's dye coated paper towel with a “dry” bacteria sample, not in solution was carried out. A dry sample of a colony of E. coli bacteria lifted off an agar petri dish containing a series of growing cultures was used. This dry sample was then rubbed onto a pre-moistened dye coated SCOTT® paper towel. The area where the colony was placed and rubbed turned colorless within 1-5 seconds. This is a similar to how a wet wipe towel would be used and it performed well.

The next data set has as its system measles. Nature of the data set: Virus detection with Reichardt's dye-coated stickers.
Data set [9] relates to S. aureus. Description: Semi-quantification of bacterial contamination on dye-treated paper. Also noted: species or system Staphylococcus aureus. The protocol:
The color differences at lower concentrations were less distinct, particularly for the brush-coated sheet. A blind study was then conducted. […] Concentrations of these three drops were unknown to two of the experiment participants. After approximately 2 minutes, the drops were removed and blotted. Using the control regions, the concentrations of each sample were each visually estimated by these two persons. Both persons correctly estimated the concentration of the first sample to be 10^6 CFU/mL. […] The persons, however, incorrectly estimated the third sample to be 10^3 CFU/mL. […] The present inventors believe, however, that the concentration of the chromogen and uniformity of the coating may be readily selected to achieve accurate results at such low concentrations.

Data set [10] in a line: UV-Vis absorption spectra in different solvents. The format is physicochemical. From the text: Reichardt's dye was used without further purification. […] Solvents used were obtained from Aldrich Chemical and were HPLC grade. A Shimadzu UV-1601 UV-Visible Spectrophotometer (Shimadzu Corporation) was used to measure the longest wavelength peak absorption of the dyes in the range of 400 to 800 nm, dissolved in three different solvents, contained in quartz curvettes. The following table contains the results of the testing with the solvents on the left side and dyes across the top.

Where [11] appears, read: 160 mg in 10 ml acetonitrile dried on SCOTT towel.

Where only a bound is given, the exact number is not on record here.

Regarding `[O-]c1c(-c2ccccc2)cc(-[n+]2c(-c3ccccc3)cc(-c3ccccc3)cc2-c2ccccc2)cc1-c1ccccc1` [Reichardt's dye, 2,6-diphenyl-4-(2,4,6-triphenylpyridinio)-phenolate], in data set [1], the “de-colorization faster with TWEEN 80 surfactant than without” value lay in the range of 20 to 30 s. Besides, in the data set on S. aureus [2], the “color change of coating made from acetonitrile solution” value is recorded as “rapid de-colorization”. Further, the “color change of coatings made from isopropanol and xylenes solutions” value with S. aureus [2] was “No visible color change”. Moreover, in [3], the “de-colorization by the other cell-wall compounds (LPS, detoxified LPS, lipoteichoic acid)” value is listed as “eventual de-colorization”. Further, in data set [3] (both experimental set-ups), the “de-colorization by muramic acid” value is on record as “near instantaneous de-colorization”. In the data set on S. aureus [4] (160 mg in 10 ml acetonitrile, 10 μl aliquots, 100 μl of 10^7 CFU/ml on towel), the “Amount of Dye Required for Persistent Color” value stood at 90 µL. Moreover, the “de-colorization time of dye drops” value in the data set on S. aureus [4] (10 μl drops of 40 mg/10 ml acetonitrile on 100 μl serially diluted suspensions on SCOTT towel) is below 1 s. Also, the “Delta E, unknown sample” value in the data set with P. aeruginosa stood at 4.1002. The de-colorization time in the data set with S. aureus [5] (paper brush-coated with 80 mg/10 mL acetonitrile, 100 μL of 10^7 to 10^4 CFU/mL) was below 1 min. In addition, in the data set on S. aureus [5] (stickers coated with 160 or 80 mg/10 mL acetonitrile, 10^7 CFU/mL transferred by gloved hand), the “de-colorization of coated stickers” value is given as “rapidly de-colorized”. In addition, the “de-colorization of sticker by undiluted virus” value in the data set on Influenza A, with vaccinia and in the data set on measles was “less than that observed for the other viruses” throughout. Moreover, the “time to decolorize to a white spot” value in the data set with E. coli [6] is “less than 10 seconds”. Also, the “effect of 1 N NaOH on acid-decolorized dye spots” value in data set [7] (setting [11]) is “rapid re-colorization”. Further, the “effect of acetic acid and Aldrich buffer pH 2.0 on dried dye spots” value in [7] (setting [11]) was “rapid de-colorization”. Also, in data set [7] (indicator spray 160 mg in 10 ml acetonitrile, hot plate surface), the “effect of 1 N NaOH on dye decolorized by aged chicken juice” value was “re-colorization of that small spot”. The “time to turn colorless” value in the data set on E. coli [8] lay in the range of 1 to 5 s. Further, in the data set on S. aureus [9] (actual 10^4 CFU/mL, dip-coated sheet), the “visually estimated concentration, blind study third sample” value is 10^3 CFU/mL. Besides, the “visually estimated concentration, blind study second sample” value with S. aureus [9] (actual 10^5 CFU/mL, brush-coated sheet) is 10^5 CFU/mL. The “visually estimated concentration, blind study first sample” value with S. aureus [9] (actual 10^6 CFU/mL, dip-coated sheet) is recorded as 10^6 CFU/mL. For the same molecule, the “perceived color of solution” value is “(bluish-green)” in data set [10] (Acetone), “(Blue)” in [10] (Acetonitrile) and “(red)” in [10] (Methanol).
